# Results from patent EP1728511A1, “New use of phenethicillin and salts thereof” (Faust Pharmaceuticals, priority 2005, dated 2006).
# Test system: SK-N-SH neuroblastoma cell
# Test: Serum deprivation assay, neuroblastoma cell survival (neutral red incorporation)
# Type: cell-based, Human
# Settings: dose range of 1-10µM, SK-N-SH cells
# From the text: Serum provides survival factors (ex: growth factors) necessary to cell viability in culture conditions. According to the serum concentration it is possible to modulate the state of the cell viability. Total suppression of these components triggers cell death via apoptosis or necrosis. Causes of cell death could be oxidative stress and free radical accumulation, mitochondrial dysfunction or imbalanced calcium homeostasis. Human SK-N-SH is a neuronal cell line usually cultured in serum containing medium. Serum withdrawal in the cell culture condition provides a cell-based assay allowing the study of neuroprotection and the screening for drugs capable of protecting cells from death or delaying cell death (Ba et al. (2003) The establishment of a reliable cytotoxic system with SK-N-SH neuroblastoma cell culture. J Neurosci. Methods 123:11-22, Green et al. (1997) 17α-oestradiol exerts neuroprotective effect on SK-N-SH cells. J Neurosci. 17(2):511-515) SK-N-SH cells (passage 35) were obtained from ECACC. […] Cell viability was assessed 48h later. […] The dye (3mg/mL) is allowed to be taken up by the cells one hour at 37°C, 5% CO2, and is subsequently extracted by mixture of acetic acid and ethanol (1/[…]) and measured at 540 nm. […]
smiles,measurement,value
"CC(Oc1ccccc1)C(=O)N[C@@H]1C(=O)N2[C@@H]1SC(C)(C)[C@@H]2C(=O)O (stereo partly drawn) [phenethicillin, (2S,5R,6R)-3,3-Dimethyl-7-oxo-6-[(1-oxo-2-phenoxypropyl)amino]-4-thia-1-azabicyclo[3.2.0]heptane-2-carboxylic acid]",neuroblastoma cell death,significantly delayed neuroblastoma cell death
